Laboratory results: patent publication US20260055061A1, “HALOPHTHALIMIDE COMPOUNDS AND METHODS OF USE AGAINST TBI, INFLAMMATORY DISORDER, AUTOIMMUNE DISORDER, NEURODEGENERATIVE DISEASE OR VIRAL INFECTION” (The United States of America, as represented by the …, priority 2022, published 2026)
Entries after “also recorded” stand apart in the source; their conditions may differ.

Experiments:
TNF-α [1] = experiment: LPS-induced TNF-α production in RAW 264.7 cells (ELISA); format: cell-based, mouse; settings: for TNF-α level / TNF-α % Δ: 1 μM, LPS-challenged RAW 264.7 cells; for TNF-α % Δ: percentage of vehicle control value (control = 100%), mean ± S.E.M., n = 3; for LPS-induced TNF-α in cell culture media (in words): 100-1000 nM; for concentration from which TNF-α was significantly reduced: 100-1000 nM tested, vs LPS+Vehicle
Outline: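 Sandwich ELISA of TNF-α secreted into the media of RAW 264.7 cultures, with a biotinylated detection antibody, avidin-HRP and TMB substrate. Absorbance read at 450 nm with 570 nm background subtraction. Levels interpolated from a TNF-α protein standard curve.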

[2] = system: LPS-induced nitrite in RAW 264.7 cells; experiment: LPS-induced nitrite production in RAW 264.7 cells (Griess reagent / fluorometric kit); format: cell-based, mouse; settings: for nitrite levels / nitrite level, % of vehicle control / nitrite inhibitory activity (comparison in words): 1 μM; for nitrite levels / nitrite level, % of vehicle control: LPS-challenged RAW 264.7 cells; for nitrite level, % of vehicle control: percentage of vehicle control value (control = 100%), mean ± S.E.M., n = 3; for nitrite inhibitory activity (comparison in words): tetrafluoro vs corresponding difluoro or stereoisomer; for LPS-induced nitrite in cell culture media (in words): 100-1000 nM; for concentration from which nitrite levels were significantly reduced: 100-1000 nM tested, vs LPS+Vehicle
Outline: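 Nitrite in culture media of LPS-challenged RAW 264.7 cells measured as a stable surrogate for NO, using Griess reagent (sulfanilamide, then N-1-naphthylethylenediamine, 10 min each in the dark). Absorbance at 550 nm, with levels read against a nitrite standard curve ([…]) made in matching medium.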

TNF-α [3] = experiment: LPS model of inflammation in rats: TNF-α in plasma and brain; format: in vivo, rat; settings: for TNF-α plasma levels (in words): both doses (TFBP 16.25/32.5, TFNBP 14.33/28.66 mg/kg i.p.), 4 hr post LPS
Description: LPS model of inflammation in rats: Male Fischer 344 rats (Charles River Laboratories, Wilmington, MA, USA) (approx. 150 g weight) were randomly assigned across groups, and thereafter administered either vehicle (Veh), or TFBP or TFNBP. Two doses of TFBPs were evaluated: (TFBP: 16.25 mg/kg or 32.5 mg/kg, and for TFNBP: 14.33 mg/kg or 28.66 mg/kg), i.p. These compounds were suspended in 1% carboxymethyl cellulose (CMC) in saline (0.9%), and administered 60 min prior to either administration of LPS (1 mg/kg, Sigma, St Louis, MO, E. coli O55:B5 in saline (0.9%), 0.1 ml/kg i.p.) or of Vehicle (CMC in saline (0.9%) 0.1 ml/kg, i.p.). […] At 4 hr following LPS or Veh, animals were euthanized, and plasma and brain (hippocampus) tissue samples were collected and stored at −80° C. Brain samples were later sonicated in a Tris-based lysis buffer (Mesoscale Discovery, Gaithersburg, MD, USA) with protease/phosphatase inhibitors (Halt™ Protease and Phosphatase Inhibitor Cocktail, ThermoFisher Scientific, Asheville, NC, USA, diluted to 3×). Next, brain samples were centrifuged (10,000 g, 10 min, 4° C.), and protein concentrations were determined by Bicinchoninic acid assay (BCA, ThermoFisher Scientific, Asheville, NC, USA). An ELISA for TNF-α, IL-6, IL-1B, IL-10 and IL-13 was later performed following the manufacturer's protocol (Mesoscale Discovery).
Four hours after LPS injection, animals were euthanized, and blood and brain tissue were collected and placed on wet ice. Plasma was quickly separated from blood by centrifuge at 10,000 g. 5 min, 4° C., and brain regions of cortex, hippocampus and the rest of brain were dissected into separate vials on wet ice, then stored at −80° C. Brain tissues were then sonicated in a TRIS based lysis buffer (Mesoscale Discovery) with 3× protease/phosphatase inhibitors (Halt™ Protease and Phosphatase Inhibitor Cocktail, Thermo Fisher Scientific), were then centrifuged at 10,000 g, 10 min, 4° C., and protein concentrations were measured by Bicinchoninic acid assay (BCA, Thermo Fisher Scientific). Rat plasma, cerebral cortical and hippocampal samples were then analyzed by multi-proinflammatory cytokines ELISA (V-PLEX Proinflammatory Panel 2 Rat Kit, Mesoscale Discovery), following the manufacturer's protocol. The processes and dosages of the experiment of drug treatment effects on LPS rat model was made on the basis of our previous studies.

[4] = high dose (TFBP 32.5, TFNBP 28.66 mg/kg i.p.)
[5] = low dose (TFBP 16.25, TFNBP 14.33 mg/kg i.p.)

CC1(C)[C@@H]2CC[C@@]1(C)[C@@H](N1C(=O)c3c(F)c(F)c(F)c(F)c3C1=O)C2 [Compound 14, 4,5,6,7-Tetrafluoro-2-((1R,2S,4R)-1,7,7-trimethylbicyclo[2.2.1]heptan-2-yl) isoindoline-1,3-dione]
TNF-α level (TNF-α [1]): 55-74% | TNF-α % Δ (TNF-α [1]): 55 ± 1% | LPS-induced TNF-α in cell culture media (in words) (TNF-α [1]): significantly decreased | concentration from which TNF-α was significantly reduced (TNF-α [1]): ≥ 600 nM | nitrite levels [2]: 25-36% | nitrite level, % of vehicle control [2]: 26 ± 3% | nitrite inhibitory activity (comparison in words) [2]: more potent nitrite inhibitory activity | LPS-induced nitrite in cell culture media (in words) [2]: significantly decreased | concentration from which nitrite levels were significantly reduced [2]: ≥ 100 nM | TNF-α plasma levels (in words) (TNF-α [3]): reduced this increase | Cerebral cortex TNF-α, change vs. LPS group (TNF-α [3]; [4]): −58.3% | TNF-α plasma levels, decline vs. LPS alone group (TNF-α [3]; higher dose (TFBP 32.5 mg/kg i.p.), 4 hr post LPS 1 mg/kg): −76% | Cerebral cortex TNF-α, change vs. LPS group (TNF-α [3]; [5]): −41.7%

O=C1c2c(F)c(F)c(F)c(F)c2C(=O)N1C1CC2CCC1C2 (stereo not drawn) [Compound 16, 2-Endo-(bicyclo[2.2.1]heptan-2-yl)-4,5,6,7-tetrafluoroisoindoline-1,3-dione]
TNF-α level (TNF-α [1]): 55-74% | TNF-α % Δ (TNF-α [1]): 74 ± 3% | LPS-induced TNF-α in cell culture media (in words) (TNF-α [1]): significantly decreased; also recorded: effective in decreasing levels of nitrite and TNF-α | concentration from which TNF-α was significantly reduced (TNF-α [1]): ≥ 300 nM | nitrite levels [2]: 25-36% | nitrite level, % of vehicle control [2]: 36 ± 4% | nitrite inhibitory activity (comparison in words) [2]: more potent nitrite inhibitory activity | LPS-induced nitrite in cell culture media (in words) [2]: significantly decreased; also recorded: effective in decreasing levels of nitrite and TNF-α | concentration from which nitrite levels were significantly reduced [2]: ≥ 300 nM | TNF-α plasma levels (in words) (TNF-α [3]): reduced this increase | Cerebral cortex TNF-α, change vs. LPS group (TNF-α [3]; [4]): −41.7% | Cerebral cortex TNF-α, change vs. LPS group (TNF-α [3]; [5]): only effectively did so at the higher tested dose

Nc1ccc(F)c2c1C(=S)N(C1CCC(=S)NC1=O)C2=O (stereo not shown) [Compound 30, 4-amino-7-fluoro-2-(2-oxo-6-thioxopiperidin-3-yl)-3-thioxoisoindolin-1-one]
LPS-induced elevation in TNF-α levels (in words) (TNF-α [1]; 0.6-60 μM, LPS 60 ng/mL, 24 h): significantly lowered | Nitrite, % Change versus Control (± s.e.m.) ([2]; 10 uM, LPS-activated RAW 264.7 cells): 35.3 ± 3.0% | drop in LPS-induced nitrite production ([2]; 10 μM, stimulated RAW cells): 65% | LPS-induced elevation in nitrite levels (in words) ([2]; 0.6-60 μM, LPS 60 ng/mL, 24 h): significantly lowered | nitrite levels (in words) ([2]; six-compound pomalidomide grouping, RAW cell assay, FIGS. 12-13): superior | TNF-α in plasma and brain (TNF-α [3]; 29.57 mg/kg i.p., LPS rat model): significantly reduce
